Assay results: US11274111B2, “Arginase inhibitors and methods of use” (Merck Sharp & Dohme Corp., priority 2018, dated 2022)

Target: T1, Arginase (Homo sapiens, UniProt P05089)
T1 construct: Arginase protein was recombinantly expressed in Escherichia coli
T1 sequence (P05089 1-322): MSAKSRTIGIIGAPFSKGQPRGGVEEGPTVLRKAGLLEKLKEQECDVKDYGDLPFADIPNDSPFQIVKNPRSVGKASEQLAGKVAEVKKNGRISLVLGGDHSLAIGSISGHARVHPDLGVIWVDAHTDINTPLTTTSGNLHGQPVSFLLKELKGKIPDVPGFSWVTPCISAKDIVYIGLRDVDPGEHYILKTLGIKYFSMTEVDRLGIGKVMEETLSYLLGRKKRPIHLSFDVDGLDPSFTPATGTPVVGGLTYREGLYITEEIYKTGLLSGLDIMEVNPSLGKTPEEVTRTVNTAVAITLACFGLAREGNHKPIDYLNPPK
Assay: Arginase Thioornithine Generating Assay (TOGA)
Assay type: biochemical
Details: for inhibition at 10 µM / Percent Inhibition at Top Dose: Top Dose 10000 nM; for IC50: recombinant arginase 1.88 nM, thioarginine substrate
Method: Arginase Thioornithine Generating Assay (TOGA)
Compounds were serially diluted in ten 3-fold steps in DMSO starting from 10 mM DMSO stocks. Compound dilutions or DMSO alone were then dispensed from the dilution plate into a Greiner black 384-well assay plate (catalog #781086) using an Echo 555 acoustic liquid handler (Labcyte).
Arginase protein was recombinantly expressed in Escherichia coli. Purified protein was then diluted in assay buffer (50 mM Tris pH 7.5, 50 mM NaCl, 1 mM manganese chloride, 0.05% bovine serum albumin to obtain a final Arginase concentration of 1.88 nM. Arginase solution (20 μL) or buffer alone (20 μL) were dispensed to wells of the assay plate using a BioRAPTR liquid dispenser (Beckman Coulter). Assay plates containing compound and arginase enzyme were incubated at room temperature for 30 minutes. Afterwards, 5 μL of 2.5 mM thioarginine (Cayman Chemicals) in assay buffer were added to each well of the assay plate using a BioRAPTR liquid dispenser. Plates were incubated at room temperature for 60 minutes and reactions were quenched by addition of 15 μL of 200 uM 7-Diethylamine-3-(4-maleimidophenyl)-4-methylcoumarin (Sigma Chemical) in 70% ethanol. Plates were briefly shaken to mix and the fluorescence was measured in an Spectramax plate reader (Molecular Devices) with a 410 nm excitation wavelength and an 490 nm emission wavelength.
Potencies were calculated by […] to the four parameter logistic IC50 equation.

[1] = read-out: Percent Inhibition at Top Dose

Question: For `NC1(C(=O)O)CC2(CNC2)CC1CCCB(O)O` (stereo not drawn) [Example 35a, 6-amino-7-(3-boronopropyl)-2-azaspiro[3.4]octane-6-carboxylic acid], which inhibition at 10 µM [1] is on record?
Answer: 99.7%

Question: And the IC50?
Answer: 237 nM

Question: How did the inhibition at 10 µM [1] turn out when `N[C@@]1(C(=O)O)C[C@H]2C[C@@H](NCCO)C[C@H]2[C@@H]1CCCB(O)O` [Example 48, (1S,2S,3aR,5R,6aR)-2-amino-1-(3-boronopropyl)-5-((2-hydroxyethyl)amino)octahydropentalene-2-carboxylic acid] was run?
Answer: 98.4%

Question: For “(1S,2S,3aR,5R,6R,6aR)-2-amino-1-(3-boronopropyl)-6-fluoro-5-(methylamino)octahydropentalene-2-carboxylate [Example 53b]”, which “Percent Inhibition at Top Dose” value is on record?
Answer: 100%

Question: And the IC50?
Answer: 6.93 nM

Question: With `CC1NC[C@@H]2[C@H]1CC(N)(C(=O)O)[C@H]2CCCB(O)O` (stereo partly drawn) [Example 31a, (3aR,4S,6aR)-5-amino-4-(3-boronopropyl)-1-methyloctahydrocyclopenta[c]pyrrole-5-carboxylic acid] as the compound, how does the inhibition at 10 µM [1] read?
Answer: 89.9%

Question: Which inhibition at 10 µM [1] does the source give for `NCCN1C[C@@H]2C[C@@](N)(C(=O)O)[C@@H](CCCB(O)O)[C@@H]2C1` [Example 9, (3aR,4S,5S,6aR)-5-amino-2-(2-aminoethyl)-4-(3-boronopropyl)octahydrocyclopenta[c]pyrrole-5-carboxylic acid] here?
Answer: 98%

Question: Which results are given for `N[C@@]1(C(=O)O)C[C@H]2CN(CC(F)(F)F)C[C@H]2[C@@H]1CCCB(O)O` [Example 10, (3aR,4S,5S,6aR)-5-amino-4-(3-boronopropyl)-2-(2,2,2-trifluoroethyl)octahydrocyclopenta[c]pyrrole-5-carboxylic acid]?
Answer: inhibition at 10 µM [1]: 55.9%; IC50: 5270 nM

Question: How did the inhibition at 10 µM [1] turn out when `NC(=O)CN1CC2CC(N)(C(=O)O)C(CCCB(O)O)C2C1` (stereo not drawn) [Example 15, 5-amino-2-(2-amino-2-oxoethyl)-4-(3-boronopropyl)octahydrocyclopenta[c]pyrrole-5-carboxylic acid] was run?
Answer: 88.6%

Question: How did the inhibition at 10 µM [1] turn out when `NC1(C(=O)O)CN2CCNC[C@H]2C1CCCB(O)O` (stereo partly drawn) [Example 38a, (8aR)-7-amino-8-(3-boronopropyl)octahydropyrrolo[1,2-a]pyrazine-7-carboxylic acid] was run?
Answer: 63%

Question: Which inhibition at 10 µM [1] does the source give for `N[C@]1(C(=O)O)[C@H](CCCB(O)O)C[C@H]2C[C@H]21` [Example 36b, (1R,2R,3R,5R)-2-amino-3-(3-boronopropyl)bicyclo[3.1.0]hexane-2-carboxylic acid] here?
Answer: 47.4%

Question: For `N[C@@]1(C(=O)O)C[C@H]2C(=O)NC[C@H]2[C@@H]1CCCB(O)O` (single isomer, unassigned) [Example 23a], which inhibition at 10 µM [1] is on record?
Answer: 86.5%

Question: `CC(=O)N1C[C@@H]2C[C@@](N)(C(=O)O)[C@@H](CCCB(O)O)[C@@H]2C1` [Example 7, (3aR,4S,5S,6aR)-2-acetyl-5-amino-4-(3-boronopropyl)octahydrocyclopenta[c]pyrrole-5-carboxylic acid] was tested. Which inhibition at 10 µM [1] did it give?
Answer: 72.8%

Question: How did the inhibition at 10 µM [1] turn out when `NC1(C(=O)O)c2cccnc2CC1CCCB(O)O` (stereo not drawn) [Example 39, 5-amino-6-(3-boronopropyl)-6,7-dihydro-5H-cyclopenta[b]pyridine-5-carboxylic acid] was run?
Answer: 94.7%

Question: With `CN[C@@]1(C(=O)O)C[C@H]2CNC[C@H]2[C@@H]1CCCB(O)O` [Example 22, (3aR,4S,5S,6aR)-4-(3-boronopropyl)-5-(methylamino)octahydrocyclopenta[c]pyrrole-5-carboxylic acid] as the compound, how does the inhibition at 10 µM [1] read?
Answer: 93.9%

Question: Which inhibition at 10 µM [1] does the source give for `N[C@@]1(C(=O)O)C[C@H]2[C@H](F)[C@@H](O)C[C@H]2[C@@H]1CCCB(O)O` [Example 54a, (1S,2S,3aR,4S,5S,6aS)-2-amino-1-(3-boronopropyl)-4-fluoro-5-hydroxyoctahydropentalene-2-carboxylate] here?
Answer: 101%

Question: Which results are given for `N[C@@H](CO)C(=O)N1C[C@@H]2C[C@@](N)(C(=O)O)[C@@H](CCCB(O)O)[C@@H]2C1` [Example 6, (3aR,4S,5S,6aR)-2-(L-seryl)-5-amino-4-(3-boronopropyl)octahydrocyclopenta[c]pyrrole-5-carboxylic acid]?
Answer: inhibition at 10 µM [1]: 94.2%; IC50: 179 nM

Question: How did the inhibition at 10 µM [1] turn out when `NC(=O)N1CC2CC(N)(C(=O)O)C(CCCB(O)O)C2C1` (single isomer, unassigned) [Example 17a, 5-amino-4-(3-boronopropyl)-2-carbamoyloctahydrocyclopenta[c]pyrrole-5-carboxylic acid] was run?
Answer: 90.6%

Question: `N[C@H]1C[C@@H]2C[C@@](N)(C(=O)O)[C@@H](CCCB(O)O)[C@@H]2C1` [Example 45, (1S,2S,3aR,5S,6aR)-2,5-diamino-1-(3-boronopropyl)octahydropentalene-2-carboxylic acid] was tested. Which inhibition at 10 µM [1] did it give?
Answer: 99.4%

Question: With “(1S,2S,3aS,5R,6R,6aR)-2-amino-1-(3-boronopropyl)-6-fluoro-5-hydroxyoctahydropentalene-2-carboxylate [Example 52b]” as the compound, how does the “Percent Inhibition at Top Dose” value read?
Answer: 99.46%

Question: And the IC50?
Answer: 37 nM

Question: `NC1(C(=O)O)CC2(CCCN2)CC1CCCB(O)O` (stereo not drawn) [Example 37a, rel-7-amino-8-(3-boronopropyl)-1-azaspiro[4.4]nonane-7-carboxylic acid] was tested. Which inhibition at 10 µM [1] did it give?
Answer: 98%

Question: What does the source list for `CC(C)[C@H](N)C(=O)N1C[C@@H]2C[C@@](N)(C(=O)O)[C@@H](CCCB(O)O)[C@@H]2C1` [Example 42, (3aR,4S,5S,6aR)-2-(L-valyl)-5-amino-4-(3-boronopropyl)octahydrocyclopenta[c]pyrrole-5-carboxylic acid]?
Answer: inhibition at 10 µM [1]: 98%; IC50: 52 nM

Question: With `CN(C)C[C@]12C[C@H]1CC(CCCB(O)O)C2(N)C(=O)O` (stereo partly drawn) [Example 33a, (1S,5R)-2-amino-3-(3-boronopropyl)-1-((dimethylamino)methyl)bicyclo[3.1.0]hexane-2-carboxylic acid] as the compound, how does the inhibition at 10 µM [1] read?
Answer: 62.7%

Question: How did the inhibition at 16 µM (Top Dose 16000 nM, read-out: Percent Inhibition at Top Dose) turn out when `N[C@@]1(C(=O)O)C[C@H]2CNC[C@H]2[C@@H]1CCCB(O)O` [Example 1f, (3aR,4S,5S,6aR)-5-amino-4-(3-boronopropyl)octahydrocyclopenta[c]pyrrole-5-carboxylic acid] was run?
Answer: 87.8%

Question: For `NC1(C(=O)O)C(CCCB(O)O)C[C@H]2CNC[C@H]21` (mixture of isomers) [Example 28, rac-(3aS,6aR)-4-amino-5-(3-boronopropyl)octahydrocyclopenta[c]pyrrole-4-carboxylic acid], which inhibition at 10 µM [1] is on record?
Answer: 90.4%

Question: Which “Percent Inhibition at Top Dose” value does the source give for “(1S,2S,3aS,5S,6R,6aR)-2-amino-1-(3-boronopropyl)-6-fluoro-5-hydroxyoctahydropentalene-2-carboxylate [Example 52a]” here?
Answer: 96.25%

Question: And the IC50?
Answer: 220 nM

Question: What does the source list for `C[C@H](N)C(=O)N[C@H]1C[C@@H]2C[C@@](N)(C(=O)O)[C@@H](CCCB(O)O)[C@@H]2C1` [Example 46, (1S,2S,3aR,5S,6aR)-2-amino-5-((S)-2-aminopropanamido)-1-(3-boronopropyl)octahydropentalene-2-carboxylic acid]?
Answer: inhibition at 10 µM [1]: 96.8%; IC50: 529 nM

Question: `NC1(C(=O)O)C2CNC(C2)C1CCCB(O)O` (stereo not drawn) [Example 24, 5-amino-6-(3-boronopropyl)-2-azabicyclo[2.2.1]heptane-5-carboxylic acid] was tested. Which inhibition at 100 µM (Top Dose 100000 nM, read-out: Percent Inhibition at Top Dose) did it give?
Answer: 95.9%

Question: `N[C@@]1(C(=O)O)C[C@H]2C[C@H](O)C[C@H]2[C@@H]1CCCB(O)O` [Example 44b, (1S,2S,3aS,5S,6aR)-2-amino-1-(3-boronopropyl)-5-hydroxyoctahydropentalene-2-carboxylic acid] was tested. Which inhibition at 10 µM [1] did it give?
Answer: 97.4%

Question: And the IC50?
Answer: 178 nM
